Source: ChEMBL document CHEMBL1201862, “PubChem BioAssay data set” (2004)
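Following 48 hours of exposure in 96-well plates, responses at five concentrations were used to interpolate endpoints linearly. The concentration for 50% growth inhibition is given as GI50.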 Active and inactive are the calls of the source. Rule as the data show it: active = GI50 up to about 1.1 µM and inactive = higher.

Legend:
Assay in all cases: NCI anticancer screen, dose series, 48 h
[1] = test system: COLO 205
[2] = test system: A498
[3] = test system: MDA-MB-435
[4] = test system: NCI-H226
[5] = test system: SNB-75
[6] = test system: SK-OV-3
[7] = test system: SK-MEL-5
[8] = test system: NCI-H23
[9] = test system: HCT-15
[10] = test system: M14
[11] = test system: MCF7
[12] = test system: HCC 2998
[13] = test system: MDA-N
[14] = test system: PC-3
[15] = test system: SF-539
[16] = test system: NCI/ADR-RES
[17] = test system: SK-MEL-28
[18] = test system: RXF 393
[19] = test system: OVCAR-8
[20] = test system: NCI-H522
[21] = test system: 786-0
[22] = test system: DU-145
[23] = test system: OVCAR-5
[24] = test system: KM12
[25] = test system: HOP-62
[26] = test system: A549
[27] = test system: IGROV-1
[28] = test system: SNB-19
[29] = test system: LOX IMVI
[30] = test system: T47D
[31] = test system: UACC-257
[32] = test system: Hs-578T
[33] = test system: HT-29
[34] = test system: K562
[35] = test system: ACHN
[36] = test system: EKVX
[37] = test system: HOP-92
[38] = test system: UO-31
[39] = test system: SF-295
[40] = test system: OVCAR-4
[41] = test system: MOLT-4
[42] = test system: UACC-62
[43] = test system: SW-620
[44] = test system: NCI-H460
[45] = test system: MDA-MB-231
[46] = test system: SR
[47] = test system: OVCAR-3
[48] = test system: U-251
[49] = test system: SK-MEL-2
[50] = test system: HL-60
[51] = test system: Malme-3M
[52] = test system: CAKI-1
[53] = test system: CCRF-CEM
[54] = test system: SF-268
[55] = test system: TK-10
[56] = test system: RPMI-8226

For `Cc1ccc(S(=O)(=O)n2c3c(c4ccccc42)CCN2CCC(Br)C[C@@H]32)cc1` (stereo partly specified), the GI50 [1] was 16.3 µM (inactive), the GI50 [2] was 22.6 µM (inactive) and the GI50 [3] was 3.79 µM (inactive). For the same compound, the GI50 [4] was 13.4 µM (inactive), the GI50 [5] was 12.2 µM (inactive) and the GI50 [6] was 15.7 µM (inactive). For the same compound, the GI50 [7] was 7.74 µM (inactive), the GI50 [8] was 11.7 µM (inactive) and the GI50 [9] was 12.1 µM. For the same compound, the GI50 [10] was 12.9 µM (inactive), the GI50 [11] was 9.42 µM (inactive) and the GI50 [12] was 15 µM (inactive). The GI50 [13] was 4.42 µM (inactive), the GI50 [14] was 13.1 µM (inactive) and the GI50 [15] was 16.7 µM (inactive). For the same compound, the GI50 [16] was 16.2 µM (inactive), the GI50 [17] was 11.9 µM (inactive) and the GI50 [18] was 12.9 µM (inactive). The GI50 [19] was 12.6 µM (inactive), the GI50 [20] was 6.34 µM (inactive) and the GI50 [21] was 16.6 µM (inactive). The GI50 [22] was 15.1 µM (inactive), the GI50 [23] was 17.3 µM (inactive) and the GI50 [24] was 8.81 µM (inactive). For the same compound, the GI50 [25] was 15 µM (inactive), the GI50 [26] was 16.7 µM (inactive) and the GI50 [27] was 10.1 µM (inactive). For the same compound, the GI50 [28] was 15.4 µM (inactive), the GI50 [29] was 13.9 µM (inactive) and the GI50 [30] was 6.11 µM (inactive). The GI50 [31] was 7.23 µM (inactive), the GI50 [32] was 13.7 µM (inactive) and the GI50 [33] was 13.3 µM (inactive). For the same compound, the GI50 [34] was 5.11 µM (inactive), the GI50 [35] was 17 µM (inactive) and the GI50 [36] was 19.1 µM (inactive). For the same compound, the GI50 [37] was 18.1 µM (inactive), the GI50 [38] was 11.9 µM (inactive) and the GI50 [39] was 11 µM (inactive). The GI50 [40] was 13.1 µM (inactive), the GI50 [41] was 9.73 µM (inactive) and the GI50 [42] was 11.9 µM (inactive). The GI50 [43] was 12.8 µM (inactive), the GI50 [44] was 14.9 µM (inactive) and the GI50 [45] was 16.5 µM (inactive). For the same compound, the GI50 [46] was 5.11 µM (inactive), the GI50 [47] was 11.1 µM (inactive) and the GI50 [48] was 12.4 µM (inactive). For the same compound, the GI50 [49] was 16.3 µM (inactive), the GI50 [50] was 5.12 µM (inactive) and the GI50 [51] was 13.2 µM (inactive). For the same compound, the GI50 [52] was 11.8 µM (inactive), the GI50 [53] was 12.2 µM (inactive) and the GI50 [54] was 16.1 µM (inactive). The GI50 [55] was 15.6 µM (inactive) and the GI50 [56] was 6.18 µM (inactive).
